Where two headings read alike, the source gives them in different places.
How the values were obtained:
C57BL/6J mice = assay: Conditioned place preference (CPP) assay; type: in vivo, mouse
Method: CPP assays were completed in a three-chamber spatial place preference chamber (Harvard Apparatus, PanLab, dimensions: 47.5 × 27.5 × 47.5 cm) using male and female C57BL/6J mice. Time in chambers was recorded by motion tracking software (SMART 3.0). […] On day 1, a pre-test was completed wherein mice were placed in the central chamber and allowed free access to the apparatus for 20 min. Mice that spent >65% of the test in one chamber were excluded and the remaining mice were counterbalanced. For counterbalancing, mice were separated into groups of approximately equal bias, similar to previously published CPP methods. No exclusions were necessary for these studies. Following counterbalancing, no initial biases were noted. The mice received their designated drug injections on days 2, 4, 6, and 8, and received saline injections on days 3, 5, 7, and 9. Each conditioning period lasted 20 min. On day 10, a post-test was completed whereby the mice were again placed in the central chamber and allowed free access for 20 min. In total, 5 male and 5 female C57BL/6J mice, 3–5 months old, were used in the CPP assays for each treatment group. Time spent in the saline-paired chamber was subtracted from time spent in the drug-paired chamber to score the pre-test and post-test. CPP score (or change from baseline) was determined by subtracting the pre-test score from the post-test score. A significant positive CPP score is indicative of reward-related behavior, while a significant reduction is indicative of aversion-related behavior.
No sex differences were observed and data for males and females were combined (see Results for specifics). Data are expressed as a change in baseline preference, which was analyzed using a one-way ANOVA with a post hoc Tukey.

[1] = reported; ref 1 (supplement); cited from earlier work
mouse α4β2 nAChRs = target: T1, mouse α4β2 nAChRs (Mus musculus, UniProt O70174+Q9ERK7); assay: Calcium 6 Ca2+ flux assay, neuro-2a cells transiently transfected with α4β2 nAChRs; type: cell-based
T1 construct: expressed in transfected cells; host or cells: mouse neuroblastoma-2a (neuro-2a) cells, transient transfection with Lipofectamine 3000
T1 sequence (O70174 31-629): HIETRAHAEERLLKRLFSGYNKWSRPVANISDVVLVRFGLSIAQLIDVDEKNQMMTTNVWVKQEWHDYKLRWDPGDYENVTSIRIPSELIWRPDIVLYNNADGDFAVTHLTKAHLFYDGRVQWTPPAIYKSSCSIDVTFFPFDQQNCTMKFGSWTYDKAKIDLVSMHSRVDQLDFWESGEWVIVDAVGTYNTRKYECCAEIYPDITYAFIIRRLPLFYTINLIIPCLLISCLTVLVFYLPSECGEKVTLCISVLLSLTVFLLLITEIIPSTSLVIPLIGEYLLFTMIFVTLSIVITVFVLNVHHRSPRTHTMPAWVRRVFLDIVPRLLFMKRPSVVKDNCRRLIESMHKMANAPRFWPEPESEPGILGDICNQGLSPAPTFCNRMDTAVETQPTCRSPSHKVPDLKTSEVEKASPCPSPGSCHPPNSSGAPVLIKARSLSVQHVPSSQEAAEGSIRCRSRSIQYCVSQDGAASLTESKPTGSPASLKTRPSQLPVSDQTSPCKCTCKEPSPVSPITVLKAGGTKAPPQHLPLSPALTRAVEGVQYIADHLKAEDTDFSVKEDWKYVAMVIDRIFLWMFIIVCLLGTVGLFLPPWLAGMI
T1 sequence (Q9ERK7 26-501): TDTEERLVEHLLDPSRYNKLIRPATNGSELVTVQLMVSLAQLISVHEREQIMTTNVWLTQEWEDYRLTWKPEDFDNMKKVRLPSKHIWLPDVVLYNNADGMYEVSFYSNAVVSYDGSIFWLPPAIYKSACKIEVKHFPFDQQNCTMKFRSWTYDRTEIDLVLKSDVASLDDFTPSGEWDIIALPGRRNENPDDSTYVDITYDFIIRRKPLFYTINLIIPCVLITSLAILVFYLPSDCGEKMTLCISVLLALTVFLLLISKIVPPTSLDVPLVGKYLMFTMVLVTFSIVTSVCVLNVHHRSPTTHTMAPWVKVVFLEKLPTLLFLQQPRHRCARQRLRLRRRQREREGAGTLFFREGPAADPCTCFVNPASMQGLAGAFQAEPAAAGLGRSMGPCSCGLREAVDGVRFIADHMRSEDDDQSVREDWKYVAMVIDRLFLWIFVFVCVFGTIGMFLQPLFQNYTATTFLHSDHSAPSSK

hTRPM8 = tested on: hTRPM8; parameters: method as in PMID 31850745; conditions: cited from earlier work
[2] = tested on: MDR1-MDCK cell monolayers; assay: in vitro
Method: (§1) MDR1-MDCK Permeability. Pharmacokinetic experiments with compounds were performed by Absorption Systems (Exton, PA, USA). MDR1-MDCK cell monolayers were grown to confluence on collagen-coated, microporous membranes in 12-well assay plates. The permeability assay buffer was Hanks’ balanced salt solution containing 10 mM HEPES and 15 mM glucose at a pH of 7.4. The buffer in the receiver chamber also contained 1% bovine serum albumin. The dosing solution concentration was 5 […]
(§2) μM of test article in the assay buffer. Cell monolayers were dosed on the apical side (A-to-B) or basolateral side (B-to-A) and incubated at 37°C with 5% CO2 in a humidified incubator. Samples were […]
(§3) chambers at 0 and 120 minutes; samples were taken from the receiver chambers at 120 minutes. Each determination was performed in duplicate. The flux of lucifer yellow was also measured post-experimentally for each monolayer to ensure no damage was inflicted to the cell monolayers during the flux period. All samples were assayed by LC-MS/MS using electrospray ionization. Analytical conditions were carried out as previously described (REF:Journigan ACS CN 2020). The apparent permeability (Papp) and percent recovery were calculated as follows:
(§4) Papp = (dCr /dt) × Vr/(A × C0) (1)
(§5) Percent Recovery = 100 × ((Vr × Crfinal) + (Vd × Cd final))/(Vd × C0) (2) […]
(§6) dCr /dt is the slope of the cumulative receiver concentration versus time in M sµ -1;
(§7) Vr is the volume of the receiver compartment in cm3;
(§8) Vd is the volume of the donor compartment in cm3;
(§9) A is the area of the insert (1.13 cm2 for 12-well);
(§10) C0 is the measured concentration of the donor chamber at time 0 in μM;
(§11) Crfinal is the cumulative receiver concentration in μM at the end of the incubation period; Cdfinal is the concentration of the donor in μM at the end of the incubation period.
(§12) Efflux ratio (ER) is defined as Papp (B-to-A) / Papp (A-to-B).
(§13) Brain Penetration Potential Classification:
(§14) Papp (A-to-B) ≥ 3.0 and ER < 3.0: High
(§15) Papp (A-to-B) ≥ 3.0 and 10 > ER ≥ 3.0: Moderate

MDR1 = assay: in vitro; conditions: dog; for efflux ratio at 120 min, 5 μM: MDCK-MDR1, pH 7.4; for recovery at 120 min, 5 μM: MDCK-MDR1, pH 7.4, Recovery (%), pH 7.4, 120 minutes
Method: as §1, §2, §3, §4, §5, §6, §7, §8, §9, §10, §11, §12, §13, §14, §15

[3] = Stability in mouse liver microsomes; type: in vitro ADME
Method: Mouse Liver Microsome Assays. These assays were carried out as detailed previously.

[4] = in the presence of 100 µM nicotine

With `CN1CCC[C@H]1c1cccnc1` [nicotine, Nicotine ditartrate dihydrate, reference compound] the “place preference (in words)” value (C57BL/6J mice; 0.5 mg/kg nicotine, males and females combined, post hoc Tukey) was “significant place preference”, the CPP score (C57BL/6J mice; female mice, 0.5 mg/kg nicotine, intraperitoneal) was 127.5 and the CPP score (C57BL/6J mice; male mice, 0.5 mg/kg nicotine, intraperitoneal) was 131.2. For the same compound, the “T1/2 of nicotine in mice” value [1] was 6 to 7 min.
For `O=C(NC1CCc2ccccc2C1)c1ccc(-c2ccccc2)cc1` (stereo not drawn) [VBJ109], the “concentration at which maximum increase occurs” value (mouse α4β2 nAChRs; [4]) is given as 50 µM and the IC50 (hTRPM8) is given as 52 ± 1 nM.
In the case of `O=C(NC1CCCCCCC1)c1ccc(-c2ccccc2)cc1` [VBJ051], the “concentration at which maximum increase occurs” value (mouse α4β2 nAChRs; [4]) is given as 50 µM and the IC50 (hTRPM8) is given as 62 ± 1 nM.
For `O=C(NC(C1CCCCC1)C1CCCCC1)c1ccc(-c2ccccc2)cc1` [VBJ098], the “activity as an agonist, PM, or antagonist” value (mouse α4β2 nAChRs; α4β2 nAChRs) was “no activity”.
For `O=C(NC1CCC2CCCCC2C1)c1ccc(-c2ccccc2)cc1` (stereo not drawn) [VBJ104], the Emax (mouse α4β2 nAChRs; N2a, read-out: Max Efficacy (Normalized to 100 µM Nicotine), in the presence of 100 µM nicotine, mean ± SEM) was 361%, the “concentration at which maximum increase occurs” value (mouse α4β2 nAChRs; [4]) was 100 µM and the “Max Efficacy (Normalized to 100 µM Nicotine)” value (mouse α4β2 nAChRs; in the presence of 100 µM nicotine, mean ± SEM) was 360.7 ± 37.7%. For the same compound, the “reward-related behavior (in words)” value (C57BL/6J mice; 0.5 mg/kg nicotine plus 0.5 mg/kg VBJ104, compared to nicotine, p < 0.05) was “significant increase in reward-related behavior”, the “reward-related behavior (in words)” value (C57BL/6J mice; 0.5 mg/kg nicotine plus 1.0 mg/kg VBJ104, p < 0.0001 vs saline, not vs nicotine alone) was “significant CPP compared to saline” and the CPP score (C57BL/6J mice; female mice, 0.5 mg/kg nicotine plus 0.5 mg/kg VBJ104, intraperitoneal) was 269.8. The CPP score (C57BL/6J mice; male mice, 0.5 mg/kg nicotine plus 0.5 mg/kg VBJ104, intraperitoneal) was 261.5, the “Brain Penetration Classification” value ([2]; MDCK-MDR1) was “Low” and the “MDR1-MDCK permeability efflux ratio (in words)” value ([2]; MDCK-MDR1) was “low”. For the same compound, the Papp average ([2]; dog, MDCK-MDR1, 120 min, 5 μM, pH 7.4) was 1.22 10-6 cm/s, the efflux ratio at 120 min, 5 μM (MDR1) was 0.685 and the Papp at 120 min, 5 μM (MDR1; MDCK-MDR1, pH 7.4, Papp R2) was 1.67 ×10⁻⁶ cm/s. It also gave a Papp at 120 min, 5 μM (MDR1; MDCK-MDR1, pH 7.4, Papp average) of 1.79 ×10⁻⁶ cm/s, a recovery at 120 min, 5 μM (MDR1; A-to-B, 5 μM) of 70.8% and a recovery at 120 min, 5 μM (MDR1; B-to-A, 5 μM) of 86.9%. The half-life ([3]; mouse, microsomes) was 11.3 min, the microsomal CLint ([3]; mouse, microsomes) was 122 µL/min/mg and the remaining at 0 h ([3]; mouse, microsomes) was 100%. For the same compound, the remaining at 10 min ([3]; mouse, microsomes) was 40.8%, the remaining at 20 min ([3]; mouse, microsomes) was 30.7% and the remaining at 0.5 h ([3]; mouse, microsomes) was 22.5%. The remaining at 1 h ([3]; mouse, microsomes) was 10.3% and the IC50 (hTRPM8) was 6 ± 1 nM.
For `O=C(NC1CCCCC1)c1ccc(-c2ccccc2)cc1` [VBJ032], the “concentration at which maximum increase occurs” value (mouse α4β2 nAChRs; [4]) is given as 50 µM and the IC50 (hTRPM8) is given as 49000 ± 1000 nM.
With `C[C@]12CC[C@H]3[C@@H](CCC4=CC(=O)CC[C@@]43C)[C@@H]1CC[C@@H]2O` [testosterone, reference compound] the half-life ([3]; mouse liver microsomes) was 4.58 min and the microsomal CLint ([3]; mouse liver microsomes, read-out: CLint) was 302 µL/min/mg.
`C[C@H]1O[C@@H](O[C@H]2[C@@H](O)C[C@H](O[C@H]3[C@@H](O)C[C@H](O[C@H]4CC[C@@]5(C)[C@H](CC[C@@H]6[C@@H]5C[C@@H](O)[C@]5(C)[C@@H](C7=CC(=O)OC7)CC[C@]65O)C4)O[C@@H]3C)O[C@@H]2C)C[C@H](O)[C@@H]1O` [digoxin, reference compound] showed an efflux ratio at 120 min, 5 μM (MDR1) of 299, a Papp at 120 min, 5 μM (MDR1; MDCK-MDR1, pH 7.4, Papp average, A-to-B, 5 μM) of 0.0612 ×10⁻⁶ cm/s and a Papp at 120 min, 5 μM (MDR1; MDCK-MDR1, pH 7.4, Papp average, B-to-A, 5 μM) of 18.3 ×10⁻⁶ cm/s.

Source: PMC8398432 (Molecules, 2021)
